First: N#Cc1cccc(N2CCc3cc(OCc4ccccc4)ccc32)c1
Second: Cc1oc(-c2ccccc2)nc1COc1ccc(COc2cccc(CC(=O)O)c2)cc1
The melting point of the first is lower: 102 to 104 °C for the first, 159 to 160 °C for the second.

First: O=C(CC12CC3CC(CC(C3)C1)C2)Nc1c(Cl)ccc2nc(N3CCNCC3)ccc12
Second: CC(C)c1ccc(Cc2c(N)nc(SCCN3CCNCC3)nc2N)cc1
The melting point of the first is higher: 280 to 283 °C for the first, 63 to 64 °C for the second.

Compared with `C=C(C)C(CC=C(C)C)CC12CC(CC=C(C)C)C(C)(C)C(CC=C(C)C)(C(=O)C(C(=O)c3ccc(O)c(O)c3)=C1O)C2=O` (stereo not given), `C=CCc1c(O)ccc2oc(C(=O)c3ccc(OC)cc3)c(C)c12` is higher in melting point: 126 °C for the first, 155 to 158 °C for the second.

First: CC(=NOCC(N)=O)c1ccc(Cl)cc1
Second: COc1ccc(C(=O)CI)cc1
The melting point of the first is higher: 103 to 104 °C for the first, 63 to 65 °C for the second.

Going from `COC(=O)C1Oc2ccc(Oc3ccc(Cl)cc3)cc2C(C)(c2ccccc2)O1` (stereo not given) to `CCC(CC(Oc1ccccc1)C(=O)O)Oc1ccc(Cl)cc1` (stereo not given), the melting point falls from 100 °C to 94 °C.

First: O=C(O)CCCCN1CCN(C2=Nc3ccccc3Oc3ccc(Cl)cc32)CC1
Second: OC(CCN1CCN(c2ccccn2)CC1)COc1ccc(F)cc1 (stereo not given)
The melting point of the first is higher: 223 to 226 °C for the first, 72 to 73 °C for the second.

First: Cn1nc(-c2c(Cl)cc(C(F)(F)F)cc2Cl)cc1N
Second: OCc1ccc(C2=NOC(c3cc(Cl)cc(Cl)c3)(C(F)(F)F)C2)cc1 (stereo not given)
The melting point of the first is higher: 161 to 163 °C for the first, 108 to 110 °C for the second.

First: CCn1nc2c(N)nc3cc(OC)ccc3c2c1CCc1ccccc1
Second: CCCn1nc(C)c(C(=O)O)c1Cc1ccc(-c2ccccc2-c2nnn[nH]2)cc1
The melting point of the first is lower: 162 to 163 °C for the first, 240 to 242 °C for the second.

First: CCOC(CNC(=S)Nc1c(F)ccc2nc(C)ccc12)OCC
Second: CCOC(=O)c1c2ccc(CC(=O)NOCC(N)=O)ccc-2c(C(=O)OCC)c1N
The melting point of the first is lower: 189 to 191 °C for the first, 208 to 210 °C for the second.

First: Cc1cc(NS(=O)(=O)c2cccs2)c2[nH]c(C(=O)NCCSC(c3ccccc3)(c3ccccc3)c3ccccc3)cc2c1
Second: NS(=O)(=O)c1ccc(-c2cc3cccccc-3c2-c2ccccc2)cc1
The melting point of the first is higher: 214 to 215 °C for the first, 169 to 170 °C for the second.

First: C=C(COC1CC2C3CCC4=CC(=O)C=CC4(C)C3(F)C(O)CC2(C)C1(O)C(=O)CCl)c1ccccc1 (stereo not given)
Second: O=C1Nc2cc(CN3CC=C(c4ccccc4)CC3)ccc2OC1F (stereo not given)
The melting point of the first is lower: 212 to 214 °C for the first, 239 °C for the second.

First: CC(C)(C)OC(=O)N[C@@H](CSc1ccccc1N)C(=O)O
Second: CC(C)[C@H](NC(=O)OC(C)(C)C)C(=O)C1CC(=O)NC1=O (stereo not given in full)
The melting point of the first is lower: 109 to 111 °C for the first, 123 to 124 °C for the second.

First: CCCc1nccn1N=Cc1ccccc1
Second: Nc1nc(COc2ccccc2)nc2nccnc12
The melting point of the first is lower: 61 to 62 °C for the first, 202 to 204 °C for the second.

First: Cc1nnsc1C(=O)c1[nH]c2cc(Cl)ccc2c1CC(=O)O
Second: COc1cc(Cl)ccc1C(=O)NCCc1nc(-c2ccncn2)cc(=O)n1C
The melting point of the first is higher: 215 to 216 °C for the first, 121 to 123 °C for the second.

First: O=C(O)c1cc(O)c(-c2ccccc2)c([N+](=O)[O-])c1
Second: O=C(O)c1ccc2c(c1)S(=O)(=O)c1ccc([N+](=O)[O-])cc1C=C2
The melting point of the first is lower: 213 to 215 °C for the first, 310 to 312 °C for the second.

First: CCN(C(=O)c1ccc(CCSn2cnc3ccccc32)cc1)C1CCCCC1
Second: c1ccc(CN2CCC(n3nnc4ccccc43)CC2)cc1
The melting point of the first is higher: 114 to 115 °C for the first, 110 to 111 °C for the second.

Compared with `COC(=O)c1c(N)ncn1C1c2ccccc2CCC1(C)C` (stereo not given), `CC(=O)N1CCn2c1c(-c1ccccc1)c1ncccc1c2=O` is higher in melting point: 193 to 195 °C for the first, 229 to 231 °C for the second.

Compared with `CCOC(=O)c1cc2c(C)c(C(=O)OCC)sc2[nH]1`, `CC(C)(C)OC(=O)COc1coc(CO)cc1=O` is lower in melting point: 139 °C for the first, 90 to 92 °C for the second.

First: Nc1ccc(-c2cc3c(N4CCc5ccccc54)ncnc3[nH]2)cc1
Second: C[C@@H](Nc1ncnc2[nH]c(-c3ccc(CN4CCN(C(=O)OC(C)(C)C)CC4)cc3)cc12)c1ccccc1
The melting point of the first is higher: over 300 °C for the first, 244 to 246 °C for the second.

First: Cc1noc(NS(=O)(=O)c2ccsc2C(=O)c2ccc3c(c2)OCO3)c1Br
Second: N#CC1CN1C(=O)c1ccc2c(c1)OCO2 (stereo not given)
The melting point of the first is lower: 47 to 49 °C for the first, 95 to 97 °C for the second.

First: Cn1nc(-c2ccc(OCCCCl)cc2)ccc1=O
Second: NC(=O)Cn1nccc1-c1ccc(Oc2ccc(F)cc2)cc1
The melting point of the first is higher: 186 to 187 °C for the first, 168 to 169 °C for the second.

Compared with `O=C(NC(=O)c1c(F)cccc1F)Nc1cc(Br)c(Br)cc1C(F)(F)F`, `COc1ncccc1NC(=NC#N)NC(NC(=O)c1cc(F)cc(F)c1)C(C)(Cl)Cl` (stereo not given) is lower in melting point: 203 °C for the first, 125 to 126 °C for the second.

First: O=C(C=Cc1ccccc1F)C=Cc1ccccc1F
Second: O=C(Oc1cccc(F)c1)c1ccccc1F
The melting point of the first is higher: 68 to 72 °C for the first, 37.5 to 38.5 °C for the second.

Compared with `CC=C1OCC2(CO1)COC(=CC)OC2` (stereo not given), `COc1cc(NC(N)=O)c2c(c1)OC(C)C2` (stereo not given) is higher in melting point: 30 °C for the first, 204 °C for the second.

Compared with `COCc1ccc([C@H]2CC[C@H]([C@H]3CC[C@H](C=O)CC3)CC2)cc1F`, `COc1ccc(C(=O)CC2CCCC2)c(Cl)c1Cl` is higher in melting point: 52 to 54 °C for the first, 60 to 61.5 °C for the second.

Compared with `CCNC(=O)c1ccc(N2CCN(Cc3ccc4c(c3)NC(=O)C(C)O4)CC2)c(Cl)c1` (stereo not given), `CN1C(=O)C(C)(CCN2CCN(c3cccc4ccccc34)CC2)c2cc(F)ccc21` (stereo not given) is lower in melting point: 239 to 243 °C for the first, 144 to 146 °C for the second.

First: Cc1c(C)n(CC=C(Cl)Cl)c2c(OCc3ccccc3)nncc12
Second: N#CCc1ccc([N+](=O)[O-])c(OCc2ccccc2)c1
The melting point of the first is higher: 149 to 151 °C for the first, 73 to 85 °C for the second.

Going from `Cn1c(=O)cc(CCc2cccc(Cl)c2)c2cc(C(O)(c3ccc(Cl)cc3)c3cccnc3)ccc21` (stereo not given) to `COC(=O)CSc1cccc(CNC(=O)C2Cc3ccccc3N2S(=O)(=O)c2ccc(-c3cccc(C(F)(F)F)c3)cc2)c1` (stereo not given), the melting point falls from 115 °C to 51 °C.

Compared with `CCNS(=O)(=O)c1cncc([N+](=O)[O-])c1`, `CC(C)c1nc(CN)n(C)c1Sc1cccc([N+](=O)[O-])c1` is lower in melting point: 117 to 118 °C for the first, 77 to 78 °C for the second.

First: N#Cc1cc(-c2ccoc2)c2ccc(COc3cc(F)cc(-c4ccccn4)c3)cc2n1
Second: Cn1c(COc2nn3c(-c4ccccc4F)nncc3c2-c2ccccc2F)nc2ccccc21
The melting point of the first is lower: 198 to 200 °C for the first, 218 to 220 °C for the second.

Compared with `CC(=O)N(C)c1cccc(-c2ccnc3c(C(=O)c4cccs4)cnn23)c1`, `Cc1ncsc1C(O)c1cccc(N(C)C)c1` (stereo not given) is lower in melting point: 190 to 192 °C for the first, 135 to 138 °C for the second.

First: Cc1cc(C2N(c3ccccc3)CCN2c2ccccc2)cc(C)c1O
Second: CC1=Nc2ccccc2N(Cc2ccccc2)C(=O)C1
The melting point of the first is higher: 166 to 167 °C for the first, 111 to 113 °C for the second.

First: O[C@H]1c2cc(OCc3ccncc3)ccc2OC[C@H]1Cc1cccnc1 (relative stereo)
Second: COc1ccc(C(=O)Nc2ccc(CCc3ccc(O)c(O)c3)cc2)c(O)c1
The melting point of the first is lower: 100 to 102 °C for the first, 179 to 180 °C for the second.

First: Cc1cc(CCCOc2c(C)cc(C#N)cc2C)on1
Second: CNc1c(NCCCCc2ncc(Br)cc2C)c(=O)c1=O
The melting point of the first is lower: 46 to 48 °C for the first, 190 to 191 °C for the second.

First: COC(C(=O)O)C(=O)Nc1cc(Cl)cc(Cl)c1 (stereo not given)
Second: Cc1ccc(Nc2c(C)cc(Cl)cc2Cl)c(CC(=O)N(C)C)c1
The melting point of the first is higher: 142 to 145 °C for the first, 119 to 124 °C for the second.

First: CCCCCCCCCCCCCCCCCCOc1cc(SC)cc(N(CC(=O)O)CC(=O)O)c1
Second: CCCCCCCCOC1CCC(=O)N1 (stereo not given)
The melting point of the first is higher: 129 to 130 °C for the first, 36 to 38 °C for the second.

Compared with `COC(=O)C(C)(C)OCC#Cc1cc(Cl)ccc1NS(=O)(=O)c1ccc2c(c1)OCCN2C`, `CCN1CCCC1CNS(=O)(=O)c1ccc(Nc2ccnc3cc(Cl)ccc23)cc1` (stereo not given) is higher in melting point: 98 to 100 °C for the first, 200 to 202 °C for the second.

First: CS(=O)(=O)c1ccc(-c2nn3c4c(oc3c2-c2ccc(F)cc2)COCC4)cc1
Second: Cc1ccc(-n2cccc2-c2ccc(S(N)(=O)=O)cc2)cc1
The melting point of the first is higher: 200 to 201 °C for the first, 131 to 134 °C for the second.

Compared with `COc1ccc(CCC(C)NC(Cc2ccccc2C)=NC#N)cc1` (stereo not given), `CCc1cccc(CC)c1NC(=NCc1cccc(CCl)c1)Nc1c(CC)cccc1CC` is lower in melting point: 103 to 104 °C for the first, 83.5 to 86.5 °C for the second.

First: Cc1cc(O)ccc1-n1cc(C(=O)O)c(=O)cc1C1=CCCC1
Second: O=C(O)c1nn(-c2ccc(Cl)cc2)c2c1CCCC2
The melting point of the first is lower: 211 to 213 °C for the first, 218 °C for the second.

First: CNc1nc(-c2cccc(-c3cnc4c(C)cccc4c3)c2)c2cc(OC)c(OC)cc2n1
Second: COc1cccc2c1CCCC2=NNc1nc(-c2cccc([N+](=O)[O-])c2)cs1
The melting point of the first is higher: 188 to 190 °C for the first, 185 °C for the second.

First: Cc1cc(F)ccc1-c1nc(NC(C)(C)CO)nc2c1ccc(=O)n2-c1c(F)cccc1F
Second: CC(C)C(=O)NC1CCc2c(c3cc(C(N)=O)ccc3n2Cc2cccc(F)c2)C1 (stereo not given)
The melting point of the first is lower: 99 to 105 °C for the first, 192 to 194 °C for the second.

First: O=S(=O)(Nc1nccnc1OCc1ccccn1)c1cccc(Cl)c1Cl
Second: COC1=NC2C=C(C(=O)NCC3CC3)C(NC(=O)c3cc(C(F)(F)F)nn3-c3ncccc3Cl)=C(Cl)C2S1 (stereo not given)
The melting point of the first is lower: 167 to 168 °C for the first, 199 to 201 °C for the second.

First: COCC(=O)Nc1ccc2c(c1)CCC2
Second: N#CCCN1CCc2c3n(c4ccccc24)C(=O)CCC31 (stereo not given)
The melting point of the first is lower: 104 to 105 °C for the first, 156 to 157 °C for the second.

First: O=C(NC(SC(=O)c1ccccc1)C(=O)N1CCCC1C(=O)O)c1ccccc1 (stereo not given)
Second: O=C(O)C[C@@H](Oc1c(Br)cc(-c2c3ccccc3c(Br)c3sc4ccccc4c23)cc1Br)C(=O)O
The melting point of the first is higher: 202 to 205 °C for the first, 163 to 164 °C for the second.

Compared with `CC(O)C#CC1(C)C=CN=C(N)N1` (stereo not given), `COc1ccc(-c2nc3ccc(-n4cncn4)cc3[nH]2)cc1OC(C)C` is lower in melting point: 155 °C for the first, 118 to 126 °C for the second.

First: CC(C)(C)N=NC(C)(C#N)COC(=O)c1ccccc1 (stereo not given)
Second: CC1Cc2c(C#N)cccc2C1=O (stereo not given)
The melting point of the first is lower: 57 to 59 °C for the first, 101 to 102 °C for the second.

First: CCOC(=O)C(=Cc1ccc(O)cc1)C(=O)CCl
Second: CCCc1c(OCCCCCC(=O)c2ccc(OC)c(OC)c2)ccc(C(=O)OC)c1O
The melting point of the first is lower: 92 to 95 °C for the first, 117 to 119 °C for the second.

First: C1=C(c2ccncc2)CCC2(C1)OCCO2
Second: O=C(N[C@H]1CC[C@H](CCN2CCN(c3nccc4ccoc34)CC2)CC1)C1CCOCC1
The melting point of the first is lower: 67 to 70 °C for the first, 211 °C for the second.

First: C=CCOc1nc(N(CC=C)CC=C)nc(N2CCc3ccccc3CC2)c1C#N
Second: O=c1ccn([C@H]2[C@H](O)[C@H](O)CC[C@H]2O)c(=O)[nH]1 (racemic)
The melting point of the first is lower: 126 to 130 °C for the first, 246 °C for the second.

From a melting point compilation (Tetko et al.; mined from patent text by program, amines drawn as free bases though some values may be those of a salt)
